Assay results published in US8765773B2, “Substituted hydroxamic acids and uses thereof” (Millennium Pharmaceuticals, Inc., priority 2010, dated 2014).

Each compound was assayed against T1, purified human HDAC6 (Homo sapiens, UniProt Q9UBN7) (assay: HDAC6 Enzyme Assay). Settings: compound concentration 0.37 μM, read-out: Percent Inhibition.
T1 construct: purchased BPS Bioscience 5006
T1 sequence (Q9UBN7 1-1215): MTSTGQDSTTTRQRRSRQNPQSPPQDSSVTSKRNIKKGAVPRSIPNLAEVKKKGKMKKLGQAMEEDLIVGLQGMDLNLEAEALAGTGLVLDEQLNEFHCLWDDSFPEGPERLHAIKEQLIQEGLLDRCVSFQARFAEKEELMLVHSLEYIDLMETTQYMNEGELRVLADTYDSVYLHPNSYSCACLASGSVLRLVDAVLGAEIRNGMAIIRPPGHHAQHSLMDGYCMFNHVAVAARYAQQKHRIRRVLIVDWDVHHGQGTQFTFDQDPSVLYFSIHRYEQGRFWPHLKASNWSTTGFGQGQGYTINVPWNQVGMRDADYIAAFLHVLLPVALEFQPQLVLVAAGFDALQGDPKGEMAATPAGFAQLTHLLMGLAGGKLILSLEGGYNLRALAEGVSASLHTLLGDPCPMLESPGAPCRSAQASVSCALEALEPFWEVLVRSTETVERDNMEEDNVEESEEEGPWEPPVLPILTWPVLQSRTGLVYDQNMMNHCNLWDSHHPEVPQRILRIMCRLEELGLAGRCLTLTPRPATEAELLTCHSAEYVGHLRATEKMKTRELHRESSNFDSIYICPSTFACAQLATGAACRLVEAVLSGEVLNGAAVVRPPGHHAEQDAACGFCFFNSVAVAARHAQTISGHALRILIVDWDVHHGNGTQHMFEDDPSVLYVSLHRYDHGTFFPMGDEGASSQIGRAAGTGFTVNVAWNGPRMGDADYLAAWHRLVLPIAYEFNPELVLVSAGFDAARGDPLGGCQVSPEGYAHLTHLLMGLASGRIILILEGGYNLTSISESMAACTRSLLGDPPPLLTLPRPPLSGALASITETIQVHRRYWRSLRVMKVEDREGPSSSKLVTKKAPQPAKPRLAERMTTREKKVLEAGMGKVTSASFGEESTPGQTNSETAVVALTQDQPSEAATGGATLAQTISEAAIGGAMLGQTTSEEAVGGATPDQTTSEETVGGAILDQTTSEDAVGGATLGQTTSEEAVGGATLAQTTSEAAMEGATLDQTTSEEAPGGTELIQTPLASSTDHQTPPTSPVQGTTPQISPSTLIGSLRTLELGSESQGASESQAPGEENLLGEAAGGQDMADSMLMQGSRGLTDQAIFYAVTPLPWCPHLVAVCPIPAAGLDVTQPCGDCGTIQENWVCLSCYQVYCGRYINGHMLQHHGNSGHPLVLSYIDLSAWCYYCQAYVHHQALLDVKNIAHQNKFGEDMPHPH
Assay type: biochemical
Procedure: To measure the inhibition of HDAC6 activity, purified human HDAC6 (BPS Bioscience; Cat. No. 5006) is incubated with substrate Ac-Arg-Gly-Lys(Ac)-AMC peptide (Bachem Biosciences; Cat. No. I-1925) for 1 hour at 30° C. in the presence of test compounds or vehicle DMSO control. The reaction is stopped with the HDAC inhibitor trichostatin A (Sigma; Cat. No. T8552) and the amount of Arg-Gly-Lys-AMC generated is quantitated by digestion with trypsin (Sigma; Cat. No. T1426) and subsequent measurement of the amount of AMC released using a fluorescent plate reader (Pherastar; BMG Technologies) set at Ex 340 nm and Em 460 nm. Concentration response curves are generated by calculating the fluorescence increase in test compound-treated samples relative to DMSO-treated controls, and percentage inhibition values at a single concentration or enzyme inhibition (IC50) values are determined from those curves. One skilled in the art will appreciate that the values generated either as percentage inhibition at a single concentration or IC50 values are subject to experimental variation.

| inhibition at 0.37 µM [%] | Structure (SMILES) |
| --- | --- |
| 93.9 | O=C(NO)c1ccc2ccn(-c3ccccc3)c(=O)c2c1 [Compound I-154, N-hydroxy-1-oxo-2-phenyl-1,2-dihydroisoquinoline-7-carboxamide] |
| 51.1 | NCc1cn(Cc2ccccc2)c(=O)c2cc(C(=O)NO)ccc12 [Compound I-407, 4-(aminomethyl)-2-benzyl-N-hydroxy-1-oxo-1,2-dihydroisoquinoline-7-carboxamide] |
| 91.7 | CC(C)Cc1nc2cc(C(=O)NO)ccc2c(=O)[nH]1 [Compound I-402, N-hydroxy-2-isobutyl-4-oxo-3,4-dihydroquinazoline-7-carboxamide] |
| 83.5 | O=C(NO)c1ccc2ncn(CCc3cccc(-c4cc5ccccc5s4)c3)c(=O)c2c1 [Compound I-302, 3-{2-[3-(1-benzothien-2-yl)phenyl]ethyl}-N-hydroxy-4-oxo-3,4-dihydroquinazoline-6-carboxamide] |
| 78.5 | O=C(NO)c1ccc2c(=O)n(Cc3ccc(C(F)(F)F)cc3)c(C3CCCC3)nc2c1 [Compound I-106, 2-cyclopentyl-N-hydroxy-4-oxo-3-[4-(trifluoromethyl)benzyl]-3,4-dihydroquinazoline-7-carboxamide] |
| 84.1 | O=C(NO)c1ccc2ncn(Cc3cccc(-c4cc(C(F)(F)F)cc(C(F)(F)F)c4)c3)c(=O)c2c1 [Compound I-79, 3-{[3′,5′-bis(trifluoromethyl)biphenyl-3-yl]methyl}-N-hydroxy-4-oxo-3,4-dihydroquinazoline-6-carboxamide] |
| 90.9 | Cc1cccc(-c2cccc(CCn3cnc4ccc(C(=O)NO)cc4c3=O)c2)c1 [Compound I-304, N-hydroxy-3-[2-(3′-methylbiphenyl-3-yl)ethyl]-4-oxo-3,4-dihydroquinazoline-6-carboxamide] |
| 100 | CC1(C(=O)Nc2cccc(Cn3ccc4ccc(C(=O)NO)cc4c3=O)c2)CCNCC1 [Compound I-215, N-hydroxy-2-(3-{[(4-methylpiperidin-4-yl)carbonyl]amino}benzyl)-1-oxo-1,2-dihydroisoquinoline-7-carboxamide] |
| 99.5 | O=C(NO)c1ccc2ccn(Cc3cccc(-n4ncc5ccccc54)c3)c(=O)c2c1 [Compound I-137, N-hydroxy-2-[3-(1H-indazol-1-yl)benzyl]-1-oxo-1,2-dihydroisoquinoline-7-carboxamide] |
| 5.79 | O=C(NO)c1ccc2c(=O)[nH]c(-c3nc4ccccc4o3)nc2c1 [Compound I-404, 2-(1,3-benzoxazol-2-yl)-N-hydroxy-4-oxo-3,4-dihydroquinazoline-7-carboxamide] |
| 42.1 | O=C(NO)c1ccc2ncn(CCc3cccc(-c4ccccc4C(F)(F)F)c3)c(=O)c2c1 [Compound I-325, N-hydroxy-4-oxo-3-{2-[2′-(trifluoromethyl)biphenyl-3-yl]ethyl}-3,4-dihydroquinazoline-6-carboxamide] |
| 73.2 | O=C(NO)c1ccc2ncn(CCN3CCCCC3)c(=O)c2c1 [Compound I-41, N-hydroxy-4-oxo-3-(2-piperidin-1-ylethyl)-3,4-dihydroquinazoline-6-carboxamide] |
| 79.9 | Cn1c(-c2nc3cc(C(=O)NO)ccc3c(=O)[nH]2)cc2ccccc21 [Compound I-415, N-hydroxy-2-(1-methyl-1H-indol-2-yl)-4-oxo-3,4-dihydroquinazoline-7-carboxamide] |

Same assay, conditions: compound concentration 0.412 μM, read-out: Percent Inhibition

| Structure (SMILES) | inhibition at 0.412 µM [%] |
| --- | --- |
| O=C(NO)c1ccc2ccn(Cc3cccc(C(F)(F)F)c3)c(=O)c2c1 [Compound I-61, N-hydroxy-1-oxo-2-[3-(trifluoromethyl)benzyl]-1,2-dihydroisoquinoline-7-carboxamide] | 95.7 |
| O=C(NO)c1ccc2c(=O)[nH]c(CNCc3ccc(Cl)cc3)nc2c1 [Compound I-92, 2-{[(4-chlorobenzyl)amino]methyl}-N-hydroxy-4-oxo-3,4-dihydroquinazoline-7-carboxamide] | 90.9 |
| O=C(NO)c1ccc2ncn(Cc3ccccc3C(F)(F)F)c(=O)c2c1 [Compound I-36, N-hydroxy-4-oxo-3-[2-(trifluoromethyl)benzyl]-3,4-dihydroquinazoline-6-carboxamide] | 91.8 |
| O=C(NO)c1ccc2c(=O)[nH]c(COc3ccccc3C(F)(F)F)nc2c1 [Compound I-168, N-hydroxy-4-oxo-2-{[2-(trifluoromethyl)phenoxy]methyl}-3,4-dihydroquinazoline-7-carboxamide] | 72.8 |
| O=C(NO)c1ccc2ccn(Cc3ccc(C(F)(F)F)cc3C(F)(F)F)c(=O)c2c1 [Compound I-78, 2-[2,4-bis(trifluoromethyl)benzyl]-N-hydroxy-1-oxo-1,2-dihydroisoquinoline-7-carboxamide] | 92.9 |
| O=C(NO)c1ccc2c(=O)n(Cc3cccc(Cl)c3)cnc2c1 [Compound I-43, 3-(3-chlorobenzyl)-N-hydroxy-4-oxo-3,4-dihydroquinazoline-7-carboxamide] | 96.1 |
| O=C(NO)c1ccc2ccn(C3CCCCCC3)c(=O)c2c1 [Compound I-117, 2-cycloheptyl-N-hydroxy-1-oxo-1,2-dihydroisoquinoline-7-carboxamide] | 93.3 |

Other lines, results leading:

| inhibition at 0.412 µM [%] | Structure (SMILES) |
| --- | --- |
| 94 | O=C(NO)c1ccc2ccn(CCNS(=O)(=O)c3ccc(Cl)cc3)c(=O)c2c1 [Compound I-213, 2-(2-{[(4-chlorophenyl)sulfonyl]amino}ethyl)-N-hydroxy-1-oxo-1,2-dihydroisoquinoline-7-carboxamide] |
| 88.1 | COc1ccc(-n2ccc3ccc(C(=O)NO)cc3c2=O)cc1 [Compound I-221, N-hydroxy-2-(4-methoxyphenyl)-1-oxo-1,2-dihydroisoquinoline-7-carboxamide] |
| 81.3 | Cc1ccc(OCc2nc3cc(C(=O)NO)ccc3c(=O)[nH]2)cc1 [Compound I-265, N-hydroxy-2-[(4-methylphenoxy)methyl]-4-oxo-3,4-dihydroquinazoline-7-carboxamide] |
| 94.8 | COc1ccc2ccc(OCCCn3ccc4ccc(C(=O)NO)cc4c3=O)cc2c1 [Compound I-231, N-hydroxy-2-{3-[(7-methoxy-2-naphthyl)oxy]propyl}-1-oxo-1,2-dihydroisoquinoline-7-carboxamide] |
| 94.8 | CC(C)(C)c1ccc(Cn2ccc3ccc(C(=O)NO)cc3c2=O)cc1 [Compound I-267, 2-(4-tert-butylbenzyl)-N-hydroxy-1-oxo-1,2-dihydroisoquinoline-7-carboxamide] |
| 94.2 | O=C(NO)c1ccc2ccn(CCCOc3cccc(C(F)(F)F)c3)c(=O)c2c1 [Compound I-176, N-hydroxy-1-oxo-2-{3-[3-(trifluoromethyl)phenoxy]propyl}-1,2-dihydroisoquinoline-7-carboxamide] |
| 92.5 | O=C(NO)c1ccc2ccn(CCCOCc3ccccc3)c(=O)c2c1 [Compound I-163, 2-[3-(benzyloxy)propyl]-N-hydroxy-1-oxo-1,2-dihydroisoquinoline-7-carboxamide] |
| 96.5 | Cc1ccc(OCCCn2ccc3ccc(C(=O)NO)cc3c2=O)cc1 [Compound I-197, N-hydroxy-2-[3-(4-methylphenoxy)propyl]-1-oxo-1,2-dihydroisoquinoline-7-carboxamide] |
| 93.9 | O=C(NO)c1ccc2ccn(CCOc3cccc(OCc4ccccc4)c3)c(=O)c2c1 [Compound I-258, 2-{2-[3-(benzyloxy)phenoxy]ethyl}-N-hydroxy-1-oxo-1,2-dihydroisoquinoline-7-carboxamide] |
